The values that follow come from patent US20240207355A1, “PHARMACEUTICAL COMPOSITION FOR ENHANCING ANTICANCER EFFECT OF ANTICANCER DRUG” (L-BASE CO., LTD., priority 2021, published 2024).

The subject of data set [1] is breast cancer cell line HCC1937. As to the kind of experiment: MTT assay, cell viability inhibition in breast cancer cell line HCC1937. Format: cell-based. The method, then: After 24 hours, the cell viability inhibitory effect was compared.
After 48 hours, the cell viability inhibitory effect was compared.
After 72 hours, the cell viability inhibitory effect was compared.
A general note: Formazan colour is commonly taken as a measure of viable cells.

Data set [2] deals with lung cancer cell line H820. Kind of data set: MTT assay, cell viability inhibition in lung cancer cell line H820. The data set is classed as cell-based.
Method: First, [sequence] was administered at a concentration of 10 μM to H820, and then, the targeted anticancer drug Osimertinib was administered either alone or in combination at a concentration of 5 μM, and the cell viability inhibitory effect was compared 48 hours later.
Data set [3] deals with lung cancer cell line H1975. Kind of data set: MTT assay, cell viability inhibition in lung cancer cell line H1975. As to conditions: for cell viability decrease compared to the control group: human; for cytotoxicity at 0.5 µM: Osimertinib 0.5 μM alone. As for the experimental part:
(§1) Specifically, cells were seeded at 2×10^3/100 μl per well on a 96-well plate, and after culturing for 24 hours, the compound according to the present invention was administered; 4 hours later, anticancer drugs were treated to each cancer cell. The treatment concentration and treatment time of the compound and anticancer drug are specifically described in the embodiment. After completing the treatment of the compound and anticancer drug, CellTiter-96® reagent (Promega Co., USA) was reacted at 5% CO2, 37° C. after adding 10 μl per well. After 3 hours, absorbance was measured at 490 nm using a spectrophotometer (SPECTROstar^Nano, BMG).
H1975 was treated with 3-PhPh-[…] at a concentration of 25 μM and after 4 hours, Osimertinib was administered at a concentration of 1.25 μM, either alone or in combination, and the cell viability inhibitory effects were compared 68 hours later.
Subsequently, H1975 was treated with 4-PhPh-[…] at a concentration of 2 μM, and at the same time, Osimertinib was administered at a concentration of 1 μM, either alone or in combination, and the cell viability inhibitory effects were compared 48 hours later.
Next. H1975 was treated with Ac-[…] at a concentration of 10 μM, and at the same time, Osimertinib was administered at a concentration of 0.5 μM, either alone or in combination, and the cell viability inhibitory effects were compared 48 hours later.
Furthermore, H1975 was treated with 4-MeOPh-[…] at a concentration of 10 μM and simultaneously, a targeted anticancer drug, Osimertinib, was administered either alone or in combination at a concentration of 0.5 μM, and after 48 hours, the effects of inhibiting cell viability were compared.
Similarly, the lung cancer cell line H1975 was treated with 4-PhPh-[…] at a concentration of 2 μM according to the MTT assay method described in the “Experimental Materials and Methods”. At the same time, Alimta, a chemotherapeutic agent, was administered either alone or in combination at a concentration of 0.2 μM, and after 48 hours, the effects of inhibiting cell viability were compared.
The anticancer effect of the triple co-administration was compared with the 3-PhPh-[…] single treatment group, and the Osimertinib and Alimta co-treatment group.

The next data set relates to H1975/OR. As to the kind of experiment: MTT assay, cell viability inhibition in lung cancer cell line H1975/OR. To be noted: for cell viability decrease compared to the control group: human, 5 μM. The method, then:
as §1
Additionally, H1975/OR was treated with 3-PhPh-[…] at a concentration of 5 μM, and after 4 hours, the chemotherapeutic agent Alimta was administered either alone or in combination at a concentration of 0.1 μM, and after 72 hours, the effects of inhibiting cell viability were compared.
Subsequently, H1975/OR was treated with 3-PhPh-[…] at a concentration of 5 μM, and after 4 hours, the targeted anticancer drug Osimertinib was administered either alone or in combination at a concentration of 2.5 μM, and after 68 hours, the effects of inhibiting cell viability were compared.

Data set [4] concerns non-small cell lung cancer cell line PC9/OR. As to the kind of experiment: MTT assay, cell viability inhibition in non-small cell lung cancer cell line PC9/OR. Format: cell-based. As to conditions: 68 h.
In a further data set the test system is H1975 cell line. To be noted: H1975 Balb/C nude mice.
Data set [5] relates to H820 lung cancer cell line. Kind of data set: Heterotransplant lung cancer animal model (H820), tumor growth. The data set is classed as in vivo. To be noted: H820 nude mice; 3-PhPh-AQTGTGKT 10 mpk alone, 7 times at a two-day interval for 14 days; FIG. 6A. As for the experimental part: The test substances were administered intravenously and orally 7 times at 2-day intervals.
Nude mice transplanted with H820 lung cancer cell line, an animal model of lung cancer described in the “Experimental Materials and Methods,” was treated 7 times at a two-day interval for 14 days with 3-PhPh-[…] at a dose of 10 mpk, and Osimertinib was orally administered daily at 2.5 mpk. Then, the growth of the tumor was compared.

The next data set relates to p-Beclin1S15. As to the kind of experiment: Immunohistochemical staining of p-Beclin1S15 in H820 tumor tissue. The data set is classed as in vivo. To be noted: H820 nude mice tumor; 3-PhPh-AQTGTGKT 10 mpk alone, 7 times at 2-day intervals; IHC; FIG. 7. As for the experimental part: Tissue embedded in paraffin was cut to a thickness of 4 μm and affixed to a slide, then thoroughly dried and the IHC experiment procedure was performed. Each slide was deparaffinized, and endogenous enzymes were removed using citrate buffer (pH 6.0). Then, p-Beclin1S15 antibody was diluted to 1:100 and treated for 15 hours at 4° C. After washing 4 times with TBST wash buffer, rabbit HRP was treated for secondary antibody reaction and reacted at room temperature for 30 minutes. After the substrate for the antibody reaction was added, when the color appeared, the slide was washed and sealed, and after slide scanning, the result was read.
Nude mice transplanted with H820 lung cancer cell line, an animal model of lung cancer described in the “Experimental Materials and Methods,” was treated 7 times at 2-day intervals for 14 days with 3-PhPh-[…] at a dose of 10 mpk. Osimertinib was orally administered daily at 2.5 mpk, followed by tumor sampling and p-Beclin1S15 immunostaining.

Where two headings read alike, the source gives them in different places. Ends that are not written are not given here. Peptide text beside a SMILES is read from it. * marks the point of attachment. Benzoyl(3-Ph) = O=C(c1cccc(-c2ccccc2)c1)*; Benzoyl(4-OMe) = COc1ccc(C(=O)*)cc1

Method for H1975 cell line: H1975 cells were mixed with matrigel in a 1:1 ratio at a concentration of 5×10^6 cells/mouse, and each was subcutaneously inoculated at 200 μl into the flank of the mouse once. After the inoculation, it was confirmed that the volume of the formed tumor reached 70˜130 mm^3, and then random grouping was carried out. After the grouping, Osimertinib was administered orally every day, and after the growth of the tumor was inhibited, the point of re-growth was identified and the co-administration with the test substance was started. The test substances were administered intravenously 7 times at 2-day intervals.
After inoculating the H1975 cell line in 4-week-old female Balb/C nude mice, the presence and growth of the tumor were observed and the short and long axes of the tumor were measured to calculate the volume. When the volume of the tumor reached 70-120 mm^3, the groups were randomly separated and PBS, the negative control group, and Osimertinib at 5 mpk were orally administered daily.
The first day of administration was set as day 1, and the volume of the tumor was measured twice a week.
Accordingly, the individuals who orally administered 5 mpk Osimertinib every day for 28 days were further divided into two groups and observed until the 32nd day of administration.

For the molecule `O=C(c1cc(Cc2n[nH]c(=O)c3ccccc23)ccc1F)N1CCN(C(=O)C2CC2)CC1` [Olaparib, reference compound], the cytotoxicity at 2.5 µM in data set [1] (Homo sapiens, HCC1937, 24 h, read-out: decrease in cell viability compared to the control group) is ~1.2%.
“AQTGTGKT [alanine-glutamine-threonine-glycine-threonine-glycine-lysine-threonine]”: the “cell viability decrease compared to the control group” value (shortened to “cell viability decrease”) in data set [2] (H820, AQTGTGKT 10 μM alone, 48 hours, FIG. 2A) is “about 15%”. Besides, the “decrease in cell viability compared to the control group” value (“decrease in cell viability” for short) in data set [1] (HCC1937, AQTGTGKT 5 μM alone, 24 hours, FIG. 4A) is “no decrease in cell viability”.
On to `COc1ccc(C(=O)N[C@@H](C)C(=O)N[C@@H](CCC(N)=O)C(=O)N[C@H](C(=O)NCC(=O)N[C@H](C(=O)NCC(=O)N[C@@H](CCCCN)C(=O)N[C@H](C(=O)O)[C@@H](C)O)[C@@H](C)O)[C@@H](C)O)cc1` ({Benzoyl(4-OMe)}-AQTGTGKT-OH), for which the “cell viability decrease” value in data set [3] (48 h, 10 μM) is recorded as “about 6%”. The “decrease in cell viability” value in data set [1] (human, 48 h, 5 μM) was “about 4.6%”.
Consider `C=CC(=O)Nc1cc(Nc2nccc(-c3cn(C)c4ccccc34)n2)c(OC)cc1N(C)CCN(C)C` [Osimertinib], for which the cytotoxicity at 0.5 µM in data set [3] (Homo sapiens, NCI-H1975, 48 h, read-out: cell viability decrease compared to the control group, H1975, 48 hours, FIG. 1C) was ~12%; in data set [3] (Homo sapiens, NCI-H1975, 48 h, read-out: cell viability decrease compared to the control group, H1975, 48 hours, FIG. 1D), ~21%. In addition, the cytotoxicity at 1 µM in data set [3] (Homo sapiens, NCI-H1975, 48 h, read-out: cell viability decrease compared to the control group, H1975, Osimertinib 1 μM alone, 48 hours, FIG. 1B) was ~5%. In addition, the cytotoxicity at 1.25 µM in data set [3] (Homo sapiens, NCI-H1975, 68 h, read-out: cell viability decrease compared to the control group, H1975, Osimertinib 1.25 μM alone, 68 hours, FIG. 1A) is ~19%. In addition, the cytotoxicity at 2.5 µM with H1975/OR (Homo sapiens, NCI-H1975, 68 h, read-out: cell viability decrease compared to the control group) is ~7%. For the same molecule, the cytotoxicity at 5 µM in data set [2] (NCI-H820, 48 h, read-out: cell viability decrease compared to the control group) was ~28%. The cytotoxicity at 6 µM in data set [2] (NCI-H820, 72 h, read-out: cell viability decrease compared to the control group) is ~15%. Moreover, in data set [4] (PC9-OR, read-out: cell viability decrease compared to the control group), the cytotoxicity at 4 µM is ~10%. In addition, the “growth of the tumor compared to the PBS group” value in the data set with H1975 cell line (Osimertinib 5 mpk orally daily, before resistance, P<0.001) is reported as “significantly suppressed”. Besides, the “weight loss or death of animals during the experiment” value in the data set with H1975 cell line (all groups) was “No weight loss or death”.
Turning to `C[C@H](NC(=O)c1cccc(-c2ccccc2)c1)C(=O)N[C@@H](CCC(N)=O)C(=O)N[C@H](C(=O)NCC(=O)N[C@H](C(=O)NCC(=O)N[C@@H](CCCCN)C(=O)N[C@H](C(=O)O)[C@@H](C)O)[C@@H](C)O)[C@@H](C)O` ({Benzoyl(3-Ph)}-AQTGTGKT-OH), the “cell viability decrease” value in data set [3] (68 h, 25 μM) is “about 10%”; in the data set with H1975/OR (68 h) it was “about 17%”; with H1975/OR (72 h) it was “about 6.5%”; in data set [2] (human, 72 h, 40 μM), “about 8%”; in data set [4] (human, 25 μM), “approximately 0.2%”. Moreover, in data set [1] (human, 72 h, 10 μM), the “decrease in cell viability” value is listed as “about 3%”. The “tumor viability reduction compared to the control group (PBS administered group)” value in data set [5] was “about 38%”. The “expression of p-Beclin1S15 compared to the group receiving Osimertinib alone” value in the data set with p-Beclin1S15 is listed as “reduced”.
Consider `Nc1nc2[nH]cc(CCc3ccc(C(=O)N[C@@H](CCC(=O)O)C(=O)O)cc3)c2c(=O)[nH]1` [Alimta, Pemetrexed, reference compound], for which the cytotoxicity at 0.2 µM in data set [3] (Homo sapiens, NCI-H1975, 48 h, read-out: cell viability decrease compared to the control group, H1975, Alimta 0.2 μM alone, 48 hours, FIG. 1E) is ~6%. In addition, the cytotoxicity at 0.1 µM with H1975/OR (Homo sapiens, NCI-H1975, 72 h, read-out: cell viability decrease compared to the control group) was ~8.3%.
